Legend:
[1] = test system: Swiss albino mice (tail immersion model); test: Tail immersion model, analgesic potential in experimental mice; type: in vivo; details: for Tail immersion latency reaction time: water 55° C., cut off 15 second, Mean ± SEM, n=6; for Percentage maximum possible effect: [(Post drug latency-Pre drug latency)/(15-Pre drug latency)]×100
Protocol: Animal Study—Evaluation of analgesic potential of the test substances against tail immersion model in experimental mice.
Male Swiss albino mice weighing between 30-35 g were used. Mice were placed into individual cylindrical mice holders leaving the tail hanging out freely. The animals were allowed to get acclimatized to mice holders for 30 min before testing. The lower 5 cm portion of the tail was marked. This part of the tail was immersed in a cup of freshly filled water at 55° C. The reaction time was recorded using a stop-watch. After each determination the tail was carefully dried. The reaction time was determined before and periodically 0 min, 30 min, 60 min, 90 min, 120 min, 180 min and 240 min after the oral administration of test substance. The cut off time of immersion was 15 second. The percentage maximum possible effect (% MPE) was calculated using the following formula: [(Post drug latency-Pre drug latency)/(15-Pre drug latency)]×100.
The values were expressed in Mean±SEM. The significance of in vivo data was analyzed by One way anova followed by Dunnet test. P<0.05 was considered as statistically significant.

eNOS gene = eNOS gene expression by semi-quantitative RT-PCR in H9C2 cells; type: cell-based, rat; details: for Regulation in Terms of Folds, eNOS (normalized to β-Actin): control = 1.00
Protocol: The test substances were evaluated for its gene expression activity in H9C2 (rat cardiomyocytes), the concentration of test substances (G2, G3 and G4,) is 500 μg/ml were taken for gene expression studies. […] [Hunter C. Champion, et al., PNAS, 2005; 102:5:1661-1666.]
eNOS were estimated for the test substance by gene expression method, where the level of expression of eNOS expression on […] Cardiomyocytes (H9C2) was determined with respect to untreated H9C2 cells.
The H9C2 cells treated with test samples were subjected to cell lysis by treating with Tri-extract reagent. Chloroform was added, to isolate the total RNA from the sample and subjected for centrifugation. Out of the three distinct layers observed, upper layer was collected in fresh tube and equal volume of isopropanol was added and incubated at […] for 10 mins. After the incubation followed by centrifugation, appropriate volume of ethanol was added to resuspend the pellet. After incubation and centrifugation, the pellet was air dried and appropriate volume of TAE buffer was added. The isolated total RNA was further used for cDNA synthesis. cDNA was synthesized by priming with oligo-dT primers followed by reverse transcriptase enzyme treatment according to manufacturer's protocol (Thermoscientific). The cDNA thus synthesized was taken up for PCR for the amplification of eNOS and GAPDH (internal control).
The mRNA expression levels of eNOS were determined using semi-quantitative reverse transcriptase-polymerase chain reaction (RT-PCR). 50p of the reaction mixture was subjected to PCR for amplification of eNOS. cDNAs using specifically designed primers procured from Eurofins, India and as an internal control GAPDH/3-Actin (House-keeping genes) was co-amplified with each reaction.
eNOS: 95° C. for 5 min followed by 35 cycles of denaturation at 95° C. for 30 seconds, annealing Temp for 30 seconds and extension at 72° C. for 45 seconds. This was followed by final extension at 72° C. for 10 min.

CCCCCCCCCCCCCCCC(=O)NCCO [Composition P3A, palmitoylethanolamide]
Tail immersion latency reaction time ([1]; 0 Min, oral): 2.50 s | Tail immersion latency reaction time ([1]; 30 Min after oral administration): 5.17 s | Percentage maximum possible effect ([1]; 30 Min): 21.33% | Tail immersion latency reaction time ([1]; 60 Min after oral administration): 5.83 s | Percentage maximum possible effect ([1]; 60 Min): 26.67% | Tail immersion latency reaction time ([1]; 90 Min after oral administration): 6.50 s | Percentage maximum possible effect ([1]; 90 Min): 32.00% | Tail immersion latency reaction time ([1]; 120 Min after oral administration): 7.50 s | Percentage maximum possible effect ([1]; 120 Min): 40.00% | Tail immersion latency reaction time ([1]; 180 Min after oral administration): 8.33 s | Percentage maximum possible effect ([1]; 180 Min): 46.67% | Tail immersion latency reaction time ([1]; 240 Min after oral administration): 7.50 s | Percentage maximum possible effect ([1]; 240 Min): 40.00% | Percentage maximum possible effect compared with Pain control group (in words) ([1]; different intervals of time): significant increased | Tail immersion latency reaction time compared with Pain control group (in words) ([1]; different time intervals, One way anova, Dunnet test, P<0.05): significant increased | eNOS expression over expressed as compared to the control (eNOS gene; at tested doses (500 μg/ml), increase over control): 0.25 folds | Regulation in Terms of Folds, eNOS (normalized to β-Actin) (eNOS gene; test substance 500 μg/ml): 1.25 fold

CC(C)C[C@H](CN)CC(=O)O [Pregabalin (LYRICA ®) 75 mg, Pregabalin, reference compound]
Percentage maximum possible effect compared with Pain control group (in words) ([1]; mouse, in vivo): significant increased | Tail immersion latency reaction time compared with Pain control group (in words) ([1]; mouse, in vivo): significant increased | Regulation in Terms of Folds, eNOS (normalized to β-Actin) (eNOS gene; 125 μg/ml): 1.58 fold | eNOS gene expression up-regulated over control (eNOS gene; standard product (125 μg/ml), increase over control): 0.58 fold

From patent US10653737B1, “Synergistic nutritional compositions for pain management” (Celagenex Research (India) Pvt. Ltd., priority 2019, dated 2020)
